Experimental data: ChEMBL document CHEMBL1136461 (Bioorg Med Chem Lett, 2003)
Converted amounts (≈) assume the structure as drawn.

Columns and labels:
Mus musculus [1] = assay: Efficacy of compound to protect the methicillin resistant Staphylococcus aureus infected murine po administration; assay type: functional
Haemophilus influenzae = assay: Antibacterial activity against […] influenzae; assay type: functional
Moraxella catarrhalis = assay: Antibacterial activity against Moraxella catarrhalis; assay type: functional
[2] = tested on: Streptococcus pyogenes (Streptococcus pyogenes); assay: Antibacterial activity against Streptococcus pyogenes
Staphylococcus aureus [3] = assay: Antibacterial activity against methicillin resistant Staphylococcus aureus (MRSA); assay type: functional
Streptococcus agalactiae = assay: Antibacterial activity against Streptococcus agalactiae; assay type: functional
Streptococcus pneumoniae [4] = assay: Antibacterial activity against Streptococcus pneumoniae (PEN-R); assay type: functional
Enterococcus sp. = assay: Antibacterial activity against Enterococcus species; assay type: functional
Staphylococcus aureus [5] = assay: Antibacterial activity against methicillin susceptible Staphylococcus aureus (MSSA); assay type: functional
Mus musculus [6] = assay: Efficacy of compound to protect the methicillin resistant Staphylococcus aureus infected murine iv administration; assay type: functional
Mus musculus [7] = assay: Efficacy of compound to protect the methicillin resistant […] infected murine sc administration; assay type: functional
Streptococcus pneumoniae [8] = assay: Antibacterial activity against Staphylococcus pneumoniae (PEN-R)

Row | SMILES | ED50 (Mus musculus [1]) | MIC90 (Haemophilus influenzae) | MIC90 (Moraxella catarrhalis) | MIC90 [2] | MIC90 (Staphylococcus aureus [3]) | MIC90 (Streptococcus agalactiae) | MIC90 (Streptococcus pneumoniae [4]) | MIC90 (Enterococcus sp.) | MIC90 (Staphylococcus aureus [5]) | ED50 (Mus musculus [6]) | ED50 (Mus musculus [7]) | MIC90 (Streptococcus pneumoniae [8])
1 | COc1cc(Cc2cnc(N)nc2N)c2c(c1OC)OC(C1CC1)C=C2 (configuration not stated) | 17 mg/kg | 0.5 mg/L (≈ 1.41 µM) | 4 mg/L (≈ 11.3 µM) | 0.03 mg/L (≈ 0.0846 µM) | 0.06 mg/L (≈ 0.169 µM) | 0.5 mg/L (≈ 1.41 µM) | 4 mg/L (≈ 11.3 µM) | 0.12 mg/L (≈ 0.339 µM) | 0.06 mg/L (≈ 0.169 µM) | 4.3 mg/kg | 20 mg/kg | –
2 | CC(=O)NC[C@H]1CN(c2ccc(N3CCOCC3)c(F)c2)C(=O)O1 [LINEZOLID] | – | 64 mg/L (≈ 190 µM) | 8 mg/L (≈ 23.7 µM) | 2 mg/L (≈ 5.93 µM) | 8 mg/L (≈ 23.7 µM) | 2 mg/L (≈ 5.93 µM) | 2 mg/L (≈ 5.93 µM) | 4 mg/L (≈ 11.9 µM) | 8 mg/L (≈ 23.7 µM) | – | – | –
3 | COc1cc(Cc2cnc(N)nc2N)cc(OC)c1OC [TRIMETHOPRIM] | – | 1 mg/L (≈ 3.44 µM) | 128 mg/L (≈ 441 µM) | 64 mg/L (≈ 220 µM) | 8 mg/L (≈ 27.6 µM) | 128 mg/L (≈ 441 µM) | – | 8 mg/L (≈ 27.6 µM) | 16 mg/L (≈ 55.1 µM) | 15 mg/kg | 60 mg/kg | > 128 mg/L
4 | CN[C@H](CC(C)C)C(=O)N[C@H]1C(=O)N[C@@H](CC(N)=O)C(=O)N[C@H]2C(=O)N[C@H]3C(=O)N[C@H](C(=O)N[C@H](C(=O)O)c4cc(O)cc(O)c4-c4cc3ccc4O)[C@H](O)c3ccc(c(Cl)c3)Oc3cc2cc(c3O[C@@H]2O[C@H](CO)[C@@H](O)[C@H](O)[C@H]2O[C@H]2C[C@](C)(N)[C@H](O)[C@H](C)O2)Oc2ccc(cc2Cl)[C@H]1O [VANCOMYCIN] | – | 128 mg/L (≈ 88.3 µM) | 64 mg/L (≈ 44.2 µM) | 1 mg/L (≈ 0.69 µM) | 1 mg/L (≈ 0.69 µM) | 0.5 mg/L (≈ 0.345 µM) | 1 mg/L (≈ 0.69 µM) | 2 mg/L (≈ 1.38 µM) | 1 mg/L (≈ 0.69 µM) | – | – | –
